For one series, the system named is L. infantum. Briefly: VL hamster model in vivo efficacy (reduction of parasite load vs. control). The settings on record: 40 mg/kg qd, 5 days. The protocol:
The in vivo efficacy of the compounds C1, C3, C4, and miltefosine was evaluated in a VL hamster model infected with L. infantum. The in vivo studies were performed in accordance with the methods described by Van den Kerkhof et al. [IJP: Drugs and Drug Resistance, 2018, 8, Issue 1, 81-86]. Following treatment, the reduction of parasite load vs. control was determined in different body compartments (liver, spleen, and bone marrow) with results presented in Table 4. Table 4. Hamster in vivo efficacy

Series [1] concerns L. infantum (MHOM/MA/67/ITMAP263). The settings on record: cited from earlier work.
The test system of series [2] is L. donovani (MHOM/ET/67/L82). The settings on record: cited from earlier work.
The next series relates to MRC-5SV2 cells. Conditions: printed in SI column; data from IJP: Drugs and Drug Resistance, 2018, 8, 81-86; cited from earlier work.
The test system of series [3] is L. infantum (MHOM/FR/96/LEM3323-cl4). Briefly: Leishmania clinical isolate panel screen (drug-susceptibility assay in infected macrophages). The settings on record: Macrophage, Visceral leishmaniasis, L. infantum (MHOM/FR/96/LEM3323-cl4), Miltefosine: mean only, read-out: IC50 Mean ± SEM. Format: cell-based. As to the method: (§1) Female Swiss mice (BW ~20 g) were purchased from a commercial source (Janvier France) and kept in quarantine for 1 week. The animals were housed in group and drinking water was available ad libitum. To harvest peritoneal macrophages, the mice were first stimulated by intraperitoneal injection of 1 mL of starch solution (2% in PBS). After 24 h, macrophages were collected in RPMI-1640 supplemented with 5% iFCS, 2% penicillin-streptomycin and 1% L-glutamine by peritoneal lavage and immediately distributed in a 96-well plate at a concentration of 30,000 cells/well. The cells were incubated for 24 h at 37°C and 5 % CO2 to allow cell attachment.
(§2) Strains of L. donovani, L. infantum, L. major, L. tropica, L. guyanensis and L. panamensis were selected based on their intrinsic susceptibility to the commonly used reference drugs and their geographic distribution. All strains were cultivated in HOMEM promastigote medium and sub-cultured twice weekly. Passage numbers were kept as low as possible to avoid loss of virulence. For infection of the macrophages, metacyclic promastigote cultures were examined light microscopically for the abundant presence of metacyclic promastigotes. Upon counting, promastigotes were centrifuged and diluted in RPMI-1640 to the desired concentration. The infection ratio varied based on the ability of the strain to adequately infect the host cells and ranged from 5 to 20 promastigotes per macrophage. Macrophages were infected by adding 100 µL promastigote suspension per well onto the macrophages. When ex vivo amastigotes were available (only for two lab strains), macrophages were infected at a ratio of 10/1.
(§3) Stock solutions of the DNDi lead compounds were prepared in 100% DMSO at 20 mM and robotically further diluted in water. Miltefosine (MIL) was included as reference and formulated in water at a concentration of 20 mM. The medium was discarded from the plates to remove any residual non-internalized promastigotes and replaced by fresh RPMI-1640 medium supplemented with iFBS, P/S and L-glutamine (as described above). Next, a 2-fold dilution series of each lead compound was added to the plate with 64 µM as the highest in test-concentration for the DNDi leads and 40 µM for MIL. The 96-well plates were further incubated at 34-37°C and 5% CO2. For staining, the culture medium was discarded, and the plates were left to dry for 2-4 hours. The cells were then fixated with methanol for 10 minutes and stained with a 1/5 Giemsa dilution in water for 15 minutes. The percentage infection-inhibition compared to a positive control (untreated infected macrophages) was microscopically determined and used to calculate the IC50 and IC90 values.

For series [4], the system named is L. infantum (LEM3323-cl4 PMM). Described as above. Type of series: cell-based. The settings on record: Macrophage, read-out: IC50 Mean ± SEM. As to the method:
as §1, §2, §3

The subject of series [5] is L. major (MHOM/IL/81/Friedlin). Described as above. Type of series: cell-based. The settings on record: Macrophage, Cutaneous leishmaniasis, L. major (MHOM/IL/81/Friedlin), Miltefosine: mean only, read-out: IC50 Mean ± SEM. As to the method:
as §1, §2, §3

Series [6] concerns L. donovani (MHOM/ NP/2003/BPK282/0-cl4). The series is described as above. Format: cell-based. The settings on record: Macrophage, read-out: IC50 Mean ± SEM. The protocol:
as §1, §2, §3

Series [7] has as its system L. panamensis (MHOM/PA/71/LS94). Described as above. Conditions: Macrophage, Cutaneous leishmaniasis, L. panamensis (MHOM/PA/71/LS94), Miltefosine: mean only, read-out: IC50 Mean ± SEM. Type of series: cell-based. As to the method: as §1, §2, §3
The test system of series [8] is L. infantum (MHOM/BR/2007/WC (L3015)). The description is as above. Conditions: Macrophage, Visceral leishmaniasis, L. infantum (MHOM/BR/2007/WC (L3015)), Miltefosine: mean only, read-out: IC50 Mean ± SEM. Type of series: cell-based. As to the method:
as §1, §2, §3

Series [9] deals with L. infantum (MHOM/ES/2016/LLM-2346). Described as above. Type of series: cell-based. The settings on record: Macrophage, Visceral leishmaniasis, L. infantum (MHOM/ES/2016/LLM-2346), Miltefosine: mean only, read-out: IC50 Mean ± SEM. As to the method: as §1, §2, §3
Series [10] has as its system L. major (MHOM/SA/85/JISH118). The description is as above. Type of series: cell-based. Conditions: Macrophage, Cutaneous leishmaniasis, L. major (MHOM/SA/85/JISH118), Miltefosine: mean only, read-out: IC50 Mean ± SEM. The protocol:
as §1, §2, §3

The test system of series [11] is L. guyanensis (MHOM/PE/02/PER 054/0). Described as above. Format: cell-based. The settings on record: Macrophage, Cutaneous leishmaniasis, L. guyanensis (MHOM/PE/02/PER 054/0), Miltefosine: mean only, read-out: IC50 Mean ± SEM. As to the method: as §1, §2, §3
The test system of series [12] is L. infantum (LEM3323-cl4 MIL). The description is as above. Format: cell-based. Conditions: Macrophage, read-out: IC50 Mean ± SEM. As to the method:
as §1, §2, §3

For series [13], the system named is L. tropica (MHOM/AF/2015/HTD7). The description is as above. Type of series: cell-based. The settings on record: Macrophage, Cutaneous leishmaniasis, L. tropica (MHOM/AF/2015/HTD7), Miltefosine: mean only, read-out: IC50 Mean ± SEM. The protocol: as §1, §2, §3
In series [14] the test system is L. donovani (MHOM/NP/03/BPK275/0-cl18). The series is described as above. Type of series: cell-based. Conditions: Macrophage, Visceral leishmaniasis, L. donovani (MHOM/NP/03/BPK275/0-cl18), Miltefosine: mean only, read-out: IC50 Mean ± SEM. The protocol: as §1, §2, §3

Like-named read-outs stand apart in the source and are kept apart here.

One may read the IC50 as the midpoint of a concentration-inhibition curve. For orientation: CC50 means the concentration that lowers cell viability or growth by half. `CCCCCCCCCCCCCCCCOP(=O)([O-])OCC[N+](C)(C)C` [Miltefosine, reference compound]: the “% Parasite reduction Bone marrow” value in the series on L. infantum (bone marrow) was 92.1-99.0%. Besides, the “% Parasite reduction Liver” value with L. infantum (liver) is on record as 97.0-98.2%. In the series on L. infantum (spleen), the “% Parasite reduction Spleen” value is recorded as 95.7-99.5%. The IC50 in series [1] (L. infantum infected macrophages, IJP: Drugs and Drug Resistance, 2018, 8, Issue 1, 81-86) was 3500 ± 400 nM; in [1] (L. infantum, data from IJP: Drugs and Drug Resistance, 2018, 8, 81-86), 3500 ± 400 nM; in series [2] (L. donovani infected macrophages, IJP: Drugs and Drug Resistance, 2018, 8, Issue 1, 81-86), 1800 ± 400 nM; in series [2] (L. donovani, data from IJP: Drugs and Drug Resistance, 2018, 8, 81-86), 1800 ± 400 nM; in series [3] it was 1810 nM; in series [4] it was 20300 nM. The IC50 in series [5] is 11300 nM; in series [6], 2010 nM; in series [7], 1810 nM; in [8], 2690 nM; in series [9], 2160 nM; in series [10] it was 24000 nM. Further, the IC50 in series [11] came to 8060 nM; in [12], 2010 nM; in series [13] it was 2160 nM; in series [14], 2070 nM. The CC50 in the series on MRC-5SV2 cells was 38500 nM.
